From ChEMBL document CHEMBL1136320, “Substrate properties of C5-substituted pyrimidine 2'-deoxynucleoside 5'-triphosphates for thermostable DNA polymerases during PCR” (Bioorg Med Chem Lett, 2003)

Assays:
Nucleic Acid [1] = assay: Amount of full-length DNA product formed using polymerase A Thermo Sequenase; No product detected; assay type: nucleic-acid assay
Nucleic Acid [2] = assay: Amount of full-length DNA product formed using polymerase B Deep vent (exo); No product detected; assay type: nucleic-acid assay
Nucleic Acid [3] = assay: Amount of full-length DNA product formed using polymerase B Pfu; No product detected; assay type: nucleic-acid assay
Nucleic Acid [4] = assay: Amount of full-length DNA product formed using polymerase B Vent (exo); No product detected; assay type: nucleic-acid assay
Nucleic Acid [5] = assay: Amount of full-length DNA product formed using polymerase A Tth; No product detected; assay type: nucleic-acid assay
Nucleic Acid [6] = assay: Amount of full-length DNA product formed using Taq polymerase; No product detected; assay type: functional
Nucleic Acid [7] = assay: Amount of full-length DNA product formed using polymerase B Pwo; No product detected; assay type: nucleic-acid assay
Nucleic Acid [8] = assay: Amount of full-length DNA product formed using polymerase B Vent (exo); range is 35-70%; assay type: nucleic-acid assay
Nucleic Acid [9] = assay: Amount of full-length DNA product formed using polymerase B Pfu; assay type: nucleic-acid assay
Nucleic Acid [10] = assay: Amount of full-length DNA product formed using polymerase B Deep vent (exo); assay type: nucleic-acid assay
Nucleic Acid [11] = assay: Amount of full-length DNA product formed using polymerase B Pwo; range is 35-70%; assay type: nucleic-acid assay
Nucleic Acid [12] = assay: Amount of full-length DNA product formed using polymerase B Pwo; assay type: nucleic-acid assay

Row | Structure (SMILES) | Activity (Nucleic Acid [1]) | Activity (Nucleic Acid [2]) | Activity (Nucleic Acid [3]) | Activity (Nucleic Acid [4]) | Activity (Nucleic Acid [5]) | Activity (Nucleic Acid [6]) | Activity (Nucleic Acid [7]) | Activity (Nucleic Acid [8]) | Activity (Nucleic Acid [9]) | Activity (Nucleic Acid [10]) | Activity (Nucleic Acid [11]) | Activity (Nucleic Acid [12])
1 | CC#Cc1cn(C2CC(O)C(COP(=O)(O)OP(=O)(O)OP(=O)(O)O)O2)c(=O)nc1N (stereo unspecified) | Not detected | Not detected | Not detected | Not detected | Not detected | Not detected | Not detected |  |  |  |  | 
2 | NCCOCCOCc1cn(C2CC(O)C(COP(=O)(O)OP(=O)(O)OP(=O)(O)O)O2)c(=O)nc1N (stereo unspecified) | Not detected |  |  |  | Not detected | Not detected |  | 35% | < 35% | < 35% | 35% | 
3 | NCCOCCOCc1cn(C2CC(O)C(COP(=O)(O)OP(=O)(O)OP(=O)(O)O)O2)c(=O)[nH]c1=O (stereo unspecified) | Not detected |  |  |  | Not detected | Not detected |  | 35% | < 35% | < 35% |  | < 35%
